Test results from ChEMBL document CHEMBL1131425 (J Med Chem, 1998).

Assays:
[1] = target: T1, 5-hydroxytryptamine receptor 2C (Rattus norvegicus, UniProt P08909); test: Binding affinity against rat 5-hydroxytryptamine 2C receptor in A-9 cells.; type: cell-based
T1 sequence (P08909 whole entry): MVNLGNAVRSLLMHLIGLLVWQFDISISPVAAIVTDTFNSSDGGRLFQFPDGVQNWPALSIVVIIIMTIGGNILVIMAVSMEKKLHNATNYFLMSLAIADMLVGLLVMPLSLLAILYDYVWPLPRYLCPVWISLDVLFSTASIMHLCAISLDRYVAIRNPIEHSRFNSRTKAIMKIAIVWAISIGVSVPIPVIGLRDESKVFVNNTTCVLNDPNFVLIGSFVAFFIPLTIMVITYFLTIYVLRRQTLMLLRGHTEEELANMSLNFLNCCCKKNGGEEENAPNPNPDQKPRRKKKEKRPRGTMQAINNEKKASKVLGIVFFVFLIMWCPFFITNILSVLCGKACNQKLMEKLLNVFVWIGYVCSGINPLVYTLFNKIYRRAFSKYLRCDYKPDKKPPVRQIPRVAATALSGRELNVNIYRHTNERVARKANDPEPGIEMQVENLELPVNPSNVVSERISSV

[2] = target: 5-hydroxytryptamine receptor 2A (Rattus norvegicus, UniProt P14842); test: Binding affinity against rat 5-hydroxytryptamine 2A receptor in NIH3T3 cells.; type: cell-based
5-hydroxytryptamine receptor 2A, sequence (P14842 whole entry): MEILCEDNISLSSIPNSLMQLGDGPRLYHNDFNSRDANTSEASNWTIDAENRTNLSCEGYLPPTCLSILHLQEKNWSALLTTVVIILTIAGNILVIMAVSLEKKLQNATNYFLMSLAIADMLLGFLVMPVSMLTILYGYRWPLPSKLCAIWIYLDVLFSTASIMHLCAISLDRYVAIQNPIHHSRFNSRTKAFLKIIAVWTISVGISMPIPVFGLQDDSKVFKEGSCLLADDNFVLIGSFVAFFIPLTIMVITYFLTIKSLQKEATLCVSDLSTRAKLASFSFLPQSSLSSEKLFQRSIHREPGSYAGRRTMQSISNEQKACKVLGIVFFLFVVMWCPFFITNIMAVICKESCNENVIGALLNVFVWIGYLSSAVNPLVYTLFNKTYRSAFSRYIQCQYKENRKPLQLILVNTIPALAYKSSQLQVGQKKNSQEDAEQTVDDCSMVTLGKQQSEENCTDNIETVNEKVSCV

[3] = target: T2, 5-hydroxytryptamine receptor 1A (Rattus norvegicus, UniProt P19327); test: Binding affinity against rat 5-hydroxytryptamine 1A receptor in CHO cells.; type: cell-based
T2 sequence (P19327 whole entry): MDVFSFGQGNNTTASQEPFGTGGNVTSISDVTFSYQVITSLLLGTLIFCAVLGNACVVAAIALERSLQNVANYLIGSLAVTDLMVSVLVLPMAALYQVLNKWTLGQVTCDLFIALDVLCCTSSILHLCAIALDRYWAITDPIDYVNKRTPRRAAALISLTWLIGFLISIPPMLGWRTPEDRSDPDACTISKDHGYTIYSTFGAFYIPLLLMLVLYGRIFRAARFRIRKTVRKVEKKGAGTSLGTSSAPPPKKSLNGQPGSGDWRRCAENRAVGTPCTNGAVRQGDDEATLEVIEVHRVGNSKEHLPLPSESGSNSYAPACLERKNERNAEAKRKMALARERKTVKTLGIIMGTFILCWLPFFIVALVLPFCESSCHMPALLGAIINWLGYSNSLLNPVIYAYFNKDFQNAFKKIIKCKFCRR

D(2) dopamine receptor = D(2) dopamine receptor (Rattus norvegicus, UniProt P61169); test: Binding affinity against rat Dopamine receptor D2.
D(2) dopamine receptor, sequence (P61169 whole entry): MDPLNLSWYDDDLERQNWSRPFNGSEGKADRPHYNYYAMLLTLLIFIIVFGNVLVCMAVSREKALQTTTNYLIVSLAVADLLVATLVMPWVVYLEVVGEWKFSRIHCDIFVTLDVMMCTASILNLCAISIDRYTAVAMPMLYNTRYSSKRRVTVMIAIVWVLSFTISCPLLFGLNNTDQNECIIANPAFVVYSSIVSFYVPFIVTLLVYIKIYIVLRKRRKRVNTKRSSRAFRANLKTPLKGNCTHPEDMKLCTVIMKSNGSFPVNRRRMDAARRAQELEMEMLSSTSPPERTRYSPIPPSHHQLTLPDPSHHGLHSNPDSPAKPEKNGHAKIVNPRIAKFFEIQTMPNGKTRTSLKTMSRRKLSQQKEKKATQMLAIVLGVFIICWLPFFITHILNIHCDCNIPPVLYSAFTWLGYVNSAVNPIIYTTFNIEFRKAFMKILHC

Row | Structure (SMILES) | Ki [1] [nM] | Ki [2] [nM] | Ki [3] [nM] | Ki (D(2) dopamine receptor) [nM]
1 | O=C(CCCN1CCC2(CC1)NCNC2=O)c1ccc(F)cc1 | > 10000 | 5600 | > 10000 | –
2 | CN1CN(C)C2(CCN(CCCC(=O)c3ccc(F)cc3)CC2)C1=O | > 10000 | 45 | > 10000 | 300
3 | CN1CN(Cc2ccccc2)C(=O)C12CCN(CCCC(=O)c1ccc(F)cc1)CC2 | 1400 | 22 | 265 | –
4 | CC(C)N1CN(C)C2(CCN(CCCC(=O)c3ccc(F)cc3)CC2)C1=O | > 10000 | 7 | 6300 | 46
5 | CNC1(C(N)=O)CCN(CCCC(=O)c2ccc(F)cc2)CC1 | 4480 | 130 | > 10000 | –
6 | CC(C)NC1(C(N)=O)CCN(CCCC(=O)c2ccc(F)cc2)CC1 | 426 | 14 | > 10000 | 400
7 | O=C(CCCN1CCC2(CC1)C(=O)NCN2C1CCCCC1)c1ccc(F)cc1 | 677 | 0.7 | – | 0.7
8 | CCCCN1CN(C)C2(CCN(CCCC(=O)c3ccc(F)cc3)CC2)C1=O | > 10000 | 19 | > 10000 | 13
9 | CN1CNC(=O)C12CCN(CCCC(=O)c1ccc(F)cc1)CC2 | > 10000 | 23 | > 10000 | 220
10 | CCCN1CN(C)C2(CCN(CCCOc3ccc(F)cc3)CC2)C1=O | > 10000 | 19 | > 10000 | 230
11 | CCCN1CN(C)C2(CCN(CCCC(=O)c3ccc(F)cc3)CC2)C1=O | > 10000 | 20 | > 10000 | 130
12 | CN1CNC(=O)C12CCN(CCCOc1ccc(F)cc1)CC2 | > 10000 | 35 | – | 734
13 | CCN1CNC(=O)C12CCN(CCCC(=O)c1ccc(F)cc1)CC2 | > 10000 | 170 | 7960 | 170
14 | CCN1CN(C)C2(CCN(CCCC(=O)c3ccc(F)cc3)CC2)C1=O | > 10000 | 21 | > 10000 | –
15 | NC(=O)C1(NC2CCCCC2)CCN(CCCC(=O)c2ccc(F)cc2)CC1 | 270 | 6 | 1610 | 43
16 | CC(C)N1CNC(=O)C12CCN(CCCC(=O)c1ccc(F)cc1)CC2 | > 10000 | 38 | 2340 | 400
17 | NC(=O)C1(N)CCN(CCCC(=O)c2ccc(F)cc2)CC1 | > 10000 | 420 | – | –
18 | O=C(CCCN1CCC2(CC1)C(=O)NCN2c1ccccc1)c1ccc(F)cc1 [SPIPERONE] | – | – | 58 | –
